Among the test systems are A498 renal; HL-60(TB) leukemia; HOP-92 NSCLC; HT29 colon; IGROV1 ovarian; M14 melanoma; OVCAR-4 ovarian; RPMI-8226 leukemia; SF-295 CNS; SK-MEL-5 melanoma.
Common to all, as to test: DTP human tumour cell line panel, 48 h

A word on the GI50: it is the concentration at which growth is held to half of that of the control. For orientation: TGI means the concentration at which net growth stops. High values mean less potent growth arrest, low ones more potent growth arrest.

SMILES strings stand for the structures.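 1) Cells in 96-well plates. 2) Compound, 48 h, 5 concentrations. 3) Linear interpolation between surrounding doses. 4) Unreached endpoint = highest concentration. GI50 marks 50% less growth. TGI is the concentration that stops growth completely.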 A value given as a limit tells only on which side of the number the result lay.

With `CCC(CO)Nc1nc(NCc2ccccc2)c2n[nH]c(C(C)C)c2n1` (stereo not given), the GI50 was 11.6 µM in the experiment with A498 renal; 4.87 µM in the experiment on HL-60(TB) leukemia; 3.75 µM in the experiment on HOP-92 NSCLC; 3.88 µM with HT29 colon; 3.44 µM with IGROV1 ovarian; 6.21 µM in the experiment on M14 melanoma. Also, the GI50 in the experiment on OVCAR-4 ovarian is 6.81 µM; in the experiment on RPMI-8226 leukemia, 5.95 µM; in the experiment with SF-295 CNS, 16.1 µM; with SK-MEL-5 melanoma, 4.91 µM. The TGI stood at 24.4 µM in the experiment on A498 renal; 21 µM with HL-60(TB) leukemia; 19.5 µM in the experiment with HOP-92 NSCLC; 27.8 µM with HT29 colon; 25.6 µM with IGROV1 ovarian; 20.2 µM in the experiment on M14 melanoma. Also, the TGI in the experiment with OVCAR-4 ovarian is 25.6 µM; with RPMI-8226 leukemia, 29 µM; with SF-295 CNS it was 32.7 µM; with SK-MEL-5 melanoma, 17.3 µM.
Regarding `CCCC[C@H](CCc1ccccc1)N(C(=O)OC)N1CCC[C@H]1COC`, the TGI in the experiment on A498 renal is 34.6 µM; in the experiment on HL-60(TB) leukemia, > 100 µM; in the experiment with HOP-92 NSCLC, 40.5 µM; with HT29 colon, 29.4 µM; with IGROV1 ovarian it was 56.8 µM; in the experiment with M14 melanoma, 82.6 µM. The TGI was 39.9 µM in the experiment on OVCAR-4 ovarian, > 100 µM with RPMI-8226 leukemia, 33.5 µM in the experiment on SF-295 CNS and 32.9 µM with SK-MEL-5 melanoma.
Regarding `C[N+]1(CCNP(=S)(NCC[N+]2(C)Cc3c(ccc4c3OCO4)C3C2c2cc4c(cc2C[C@@H]3O)OCO4)NCC[N+]2(C)Cc3c(ccc4c3OCO4)C3C2c2cc4c(cc2C[C@@H]3O)OCO4)Cc2c(ccc3c2OCO3)C2C1c1cc3c(cc1C[C@H]2O)OCO3` (stereo not given in full), the GI50 was 1.54 µM in the experiment with A498 renal; 1.02 µM in the experiment on HL-60(TB) leukemia; 3.43 µM with HOP-92 NSCLC; 1.34 µM in the experiment on HT29 colon; 4.9 µM in the experiment on IGROV1 ovarian; 4.74 µM with OVCAR-4 ovarian. The GI50 is 1.43 µM in the experiment with SF-295 CNS and 1.89 µM in the experiment on SK-MEL-5 melanoma. Further, the concentration for total growth inhibition (TGI) in the experiment with M14 melanoma and in the experiment on RPMI-8226 leukemia was < 0.00191 µM in each case.
For the molecule `Nc1ccc(C(=O)CC2(O)C(=O)Nc3ccccc32)cc1` (stereo not given), the TGI in the experiment with A498 renal, with HL-60(TB) leukemia, in the experiment with HOP-92 NSCLC, in the experiment with HT29 colon, in the experiment with IGROV1 ovarian and in the experiment with M14 melanoma was > 100 µM throughout. Also, the TGI in the experiment on OVCAR-4 ovarian, in the experiment on RPMI-8226 leukemia, in the experiment with SF-295 CNS and in the experiment on SK-MEL-5 melanoma was > 100 µM in each case.
In the case of `C#Cc1cccc(Nc2nc(C)nc3cc(NC(=O)CCl)ccc23)c1`, the GI50 with A498 renal was 3.65 µM; in the experiment on HL-60(TB) leukemia, 2.63 µM; with HOP-92 NSCLC it was 0.67 µM; with HT29 colon, 1.06 µM; with IGROV1 ovarian, 0.533 µM; in the experiment on M14 melanoma, 2.55 µM. In addition, the GI50 with OVCAR-4 ovarian is 1.83 µM; in the experiment with RPMI-8226 leukemia, 1.12 µM; in the experiment with SF-295 CNS, 3.39 µM; in the experiment with SK-MEL-5 melanoma it was 3.56 µM. Moreover, the TGI with A498 renal was 7.64 µM; in the experiment on HL-60(TB) leukemia it was 7.67 µM; with HOP-92 NSCLC it was 1.89 µM; in the experiment with HT29 colon it was 4.15 µM; with IGROV1 ovarian it was 1.37 µM; in the experiment with M14 melanoma, 6.17 µM. For the same molecule, the TGI with OVCAR-4 ovarian worked out at 6.05 µM; in the experiment with RPMI-8226 leukemia, 4.75 µM; in the experiment on SF-295 CNS, 6.86 µM; in the experiment on SK-MEL-5 melanoma it was 7.04 µM.
Turning to `C=C[C@@H]1CCC/C=C/[C@@H]2C[C@H](O)C[C@H]2[C@H](O)/C=C/C(=O)O1`, the GI50 in the experiment with A498 renal was 0.261 µM; in the experiment with HL-60(TB) leukemia, 2.23 µM; in the experiment on HOP-92 NSCLC, 0.702 µM; with HT29 colon it was 0.342 µM; in the experiment on IGROV1 ovarian it was 1.7 µM; with M14 melanoma, 0.387 µM. For the same molecule, the GI50 was 0.407 µM with OVCAR-4 ovarian, 0.448 µM in the experiment on RPMI-8226 leukemia, 0.912 µM in the experiment with SF-295 CNS and 0.175 µM in the experiment on SK-MEL-5 melanoma. The TGI with A498 renal is 0.763 µM; with HL-60(TB) leukemia it was > 25.2 µM; with HOP-92 NSCLC, 5.95 µM; in the experiment with HT29 colon it was 1.6 µM; with IGROV1 ovarian, > 100 µM; in the experiment with M14 melanoma, > 28.9 µM. In addition, the TGI was > 94.6 µM in the experiment on OVCAR-4 ovarian, 3.4 µM in the experiment with RPMI-8226 leukemia, > 100 µM in the experiment on SF-295 CNS and 0.331 µM in the experiment on SK-MEL-5 melanoma.
Take `[Mn+3].[O-][Cl+3]([O-])([O-])O.[O-]c1ccccc1C=NCCN1CC1.[O-]c1ccccc1C=NCCN1CC1`: the GI50 in the experiment on A498 renal was > 100 µM; in the experiment on HL-60(TB) leukemia it was 14.7 µM; in the experiment on HOP-92 NSCLC it was 94.8 µM; in the experiment on HT29 colon, 20.2 µM; in the experiment with IGROV1 ovarian it was 20.9 µM; in the experiment with M14 melanoma, 26.9 µM. Further, the GI50 was 15.4 µM in the experiment on OVCAR-4 ovarian, 1.36 µM with RPMI-8226 leukemia, 18.6 µM in the experiment on SF-295 CNS and 17.6 µM with SK-MEL-5 melanoma. Moreover, the TGI with A498 renal was > 100 µM; with HL-60(TB) leukemia, 37 µM; in the experiment on HOP-92 NSCLC it was > 100 µM; in the experiment on HT29 colon it was 44.1 µM; in the experiment on IGROV1 ovarian, 62.3 µM; in the experiment on M14 melanoma it was > 100 µM. The concentration for total growth inhibition (TGI) in the experiment with OVCAR-4 ovarian is > 100 µM; in the experiment with RPMI-8226 leukemia it was 9.91 µM; in the experiment on SF-295 CNS, 58 µM; with SK-MEL-5 melanoma it was 80.8 µM.
Consider `O=C1/C(=C/c2ccc(Cl)cc2)N=C(c2ccccc2)N1c1cc(C(F)(F)F)ccc1Cl`, for which the GI50 in the experiment on A498 renal was 36.7 µM; in the experiment with HL-60(TB) leukemia it was 16.9 µM; with HOP-92 NSCLC, 20.3 µM; in the experiment with HT29 colon it was 24.1 µM; in the experiment on IGROV1 ovarian it was 18.5 µM; in the experiment with M14 melanoma, 22 µM. Moreover, the GI50 with OVCAR-4 ovarian is 20.2 µM; in the experiment with RPMI-8226 leukemia, 21.5 µM; in the experiment with SF-295 CNS, 17.2 µM; in the experiment with SK-MEL-5 melanoma, 16 µM. Besides, the TGI was > 100 µM in the experiment on A498 renal; 42.7 µM in the experiment on HL-60(TB) leukemia; 58.5 µM in the experiment with HOP-92 NSCLC; 73.5 µM in the experiment on HT29 colon; 85.7 µM with IGROV1 ovarian; 90.1 µM in the experiment with M14 melanoma. For the same molecule, the TGI in the experiment on OVCAR-4 ovarian is 89.7 µM; with RPMI-8226 leukemia, 52.1 µM; in the experiment with SF-295 CNS, 48.8 µM; in the experiment on SK-MEL-5 melanoma, 29.5 µM.

The record behind these values is PubChem BioAssay (NCI).
